The test system of this assay is E. coli WT ribosome GFP fluorescence, mixed culture, 24 h. The experiment in a line: wild-type E. coli growth inhibition versus h38 humanized strain – h38 mutant RFP, wild-type GFP, cherry-pick, dose response (AID 977622).
Setting [1] is: E. coli mixed culture, 24 h, measured here: total growth OD600.

SMILES strings stand for the structures. Records with an inconclusive call do not appear. Calls of active or inactive are those of the source.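 How the source made its calls: active means Green signal of the normal strain falls at least twice as much as red signal of the resistant mutant, with overall culture growth loss under a set limit; inconclusive means no clear call, values can overlap the other calls; inactive means the rest.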 Where only a bound is given, the exact number is not on record here.

As a reminder, the AC50 is the concentration giving half of the maximal activity seen. On to `COC(=O)CN1C(=S)N(c2ccc(Cl)cc2)C(=O)C1CC(=O)Nc1ccc(F)cc1` (configuration not stated), for which the AC50 was > 100 µM (inactive).

Turning to `CN1C(=O)c2cc(NC(=O)c3cccc(F)c3)ccc2OC[C@H]2O[C@@H](CC(=O)N3CCc4ccccc4C3)CC[C@@H]21`, the AC50 was > 100 µM (inactive).

As for `O=C1c2cccc3cccc(c23)C(=O)N1CCCn1ccnc1`, the AC50 was > 100 µM (inactive). This molecule had an AC50 under setting [1] of 51.6 µM.

As for `CS(=O)(=O)N1CC2CCCN2c2ccc(C(F)(F)F)cc21` (configuration not stated), under setting [1], the AC50 is more than 100 µM.

With `O=C(O)c1ccc(Oc2ccc([N+](=O)[O-])cc2)c([N+](=O)[O-])c1`, the AC50 is > 100 µM (inactive).

`C[C@H]1CN([C@@H](C)CO)C(=O)CCCn2nncc2CO[C@@H]1CN(C)Cc1ccccc1C(F)(F)F` displayed an AC50 under setting [1] of more than 100 µM.

For the molecule `N#Cc1cccc(-c2ccc3c(c2)[C@H]2[C@H](CCN2C(=O)c2ccccc2F)[C@H](CO)N3)c1`, the AC50 is > 100 µM (inactive).

As for `Cc1ccc(N(CC(O)Cn2nc(C)cc2C)S(=O)(=O)c2ccc3ccccc3c2)cc1` (configuration not stated), the AC50 is > 100 µM (inactive). The half-maximal activity concentration (AC50) under setting [1] was 43.1 µM.

In the case of `O=S(=O)(c1ccccc1)N1C[C@H]2[C@@H](c3ccccc31)[C@@H](CO)N2Cc1ccccc1`, the AC50 was > 100 µM (inactive).

In the case of `Cc1nc(C)c(-c2ccn(S(=O)(=O)c3ccc(Cl)cc3)n2)o1`, the AC50 was > 100 µM (inactive).

Take `CC1CN(CC(=O)Nc2nc3ccccc3s2)CC(C)O1` (configuration not stated): the AC50 was > 100 µM (inactive).

Take `CCN(CC)S(=O)(=O)c1cccc(NC(=O)CNc2cccc(S(=O)(=O)N3CCCC3)c2)c1`: the AC50 is > 100 µM (inactive).

As to `COc1ccc(C)c2sc(N(CCN(C)C)C(=O)c3ccc(S(=O)(=O)N(C)c4ccccc4)cc3)nc12`, the AC50 under setting [1] is more than 100 µM.

Turning to `CCCCNC(=O)C[C@@H]1C[C@@]2(C(=O)OC)CCCCC=C2N(Cc2ccccc2)C1=O`, the AC50 is > 100 µM (inactive). The concentration at half-maximal activity (AC50) under setting [1] was more than 100 µM.

Regarding `O=C(CSCc1c(Cl)cccc1Cl)Nc1cccnc1`, the AC50 is > 100 µM (inactive). Moreover, the AC50 under setting [1] is more than 100 µM.

Regarding `Cc1ccc(CNS(=O)(=O)c2ccc3c(c2)NC(=O)CS3)cc1`, the AC50 was > 100 µM (inactive). The same molecule registered an AC50 under setting [1] of 41 µM.

Regarding `CO[C@@H]1CN(C)C(=O)c2cc(NC(=O)C3CCCC3)ccc2OC[C@@H](C)N(C(=O)Nc2ccc(C(F)(F)F)cc2)C[C@H]1C`, the AC50 is > 100 µM (inactive). This molecule also displayed an AC50 under setting [1] of 49.5 µM.

`Cc1nn2c(NCc3ccccn3)cc(C(C)C)nc2c1-c1ccccc1`: the AC50 was > 100 µM (inactive).

Under setting [1], `CCOc1ccccc1N1CC(C(=O)Nc2cccc(S(=O)(=O)N3CCCCC3)c2)CC1=O` (configuration not stated) registered an AC50 of more than 100 µM.

With `CC(=O)Oc1c(Cl)cc(N(C(C)=O)S(=O)(=O)c2ccccc2)c2ccccc12`, the AC50 was > 100 µM (inactive). In addition, the concentration at half-maximal activity (AC50) under setting [1] was 47.2 µM.

`Cc1cc(C)cc(NC(=O)c2cccc(NC(=O)C3C4CC5OC(=O)C3C5C4)c2)c1` (configuration not stated): the AC50 was > 100 µM (inactive).

Take `COc1ccc(-c2ccccc2)cc1NC(=O)c1ccncc1`: the AC50 was > 100 µM (inactive).

Turning to `Cc1c(Cc2ccc3c(c2)OCO3)sc(NC(=O)C2CC2)c1C(N)=O`, the AC50 is > 100 µM (inactive). Further, the AC50 under setting [1] turned out to be 34.7 µM.

As for `Cc1ccc(Nc2cc(C(=O)NCCCN3CCOCC3)c3ccccc3n2)cc1C`, the AC50 was > 100 µM (inactive). This molecule came in with an AC50 under setting [1] of more than 100 µM.

Consider `CCOC(=O)c1cccc(OS(=O)(=O)Cc2ccccc2)c1`, for which the AC50 is > 100 µM (inactive). The AC50 under setting [1] is more than 100 µM.

`CCN(C(=O)c1ccnc(C(C)(C)C)c1)c1ccccc1`: the AC50 is > 100 µM (inactive).

As to `C[C@@H]1CN([C@H](C)CO)C(=O)c2cccc(NC(=O)c3ccncc3)c2O[C@@H]1CN(C)S(=O)(=O)c1ccc(Cl)cc1`, the AC50 was > 100 µM (inactive).

`Fc1ccc(Br)cc1SCCc1ccncc1` registered an AC50 under setting [1] of more than 100 µM.

Regarding `O=[N+]([O-])c1ccc(N2CCOCC2)c2c1no[n+]2[O-]`, the AC50 was > 100 µM (inactive). The AC50 under setting [1] is more than 100 µM.

For the molecule `COc1ccc(-c2csc(NC(=O)c3ccoc3C)n2)cc1`, the AC50 was > 100 µM (inactive). This molecule showed an AC50 under setting [1] of more than 100 µM.

Regarding `COc1ccccc1Cn1c(=S)[nH]c2ccccc2c1=O`, the AC50 is > 100 µM (inactive). For the same molecule, under setting [1], the concentration at half-maximal activity (AC50) stood at 42.1 µM.

With `COc1ccc(NC(=O)CN(c2ccccc2OC)S(=O)(=O)c2cccs2)cc1Cl`, the AC50 under setting [1] was more than 100 µM.

For `COc1ccc(NC(=O)CSc2n[nH]c(-c3ccncc3)n2)c([N+](=O)[O-])c1`, the AC50 is > 100 µM (inactive). For the same molecule, the AC50 under setting [1] was more than 100 µM.

In the case of `O=C(NCc1ccc(-c2nc3ccccc3s2)cc1)c1ccco1`, the AC50 was > 100 µM (inactive). The same molecule showed an AC50 under setting [1] of 3 µM.

Regarding `CC(C)N1CC2(CC(c3ccccc3C(F)(F)F)=NO2)CN1C(=O)c1ccco1` (configuration not stated), the AC50 was > 100 µM (inactive). For the same molecule, the half-maximal activity concentration (AC50) under setting [1] was more than 100 µM.

On to `O=C(CC(c1ccccc1)c1cc(Br)ccc1O)N1CCCC1` (configuration not stated), for which the AC50 was > 100 µM (inactive).

Regarding `Brc1ccc(-n2cnc(-c3ccccc3)c2)cc1`, the AC50 was > 100 µM (inactive).

For the molecule `c1cc2cc(-c3c(-c4ccc5c(c4)OCO5)noc3-c3ccsc3)ccc2[nH]1`, the AC50 was > 100 µM (inactive).

Consider `CCSc1nc2ccccc2c(=O)n1Cc1ccc(F)cc1`, for which the AC50 was > 100 µM (inactive).

With `O=C(CC(=O)c1cccs1)c1ccncc1`, the AC50 is > 100 µM (inactive). Moreover, under setting [1], the half-maximal activity concentration (AC50) was more than 100 µM.

`Fc1ccc(-c2nnc(-c3ccc4ccccc4c3)o2)cc1`: the AC50 is > 100 µM (inactive).

On to `Cc1ccc(C(=O)Nc2ccc(C)c(S(=O)(=O)Nc3ccccc3Cl)c2)s1`, for which the AC50 was > 100 µM (inactive). Under setting [1], this molecule gave an AC50 of 43.1 µM.

On to `O=C(Nc1cccc(S(=O)(=O)N2CCCCC2)c1)c1ccc(Cl)nc1`, for which the AC50 was > 100 µM (inactive).

Under setting [1], `COc1ccc([C@H]2C[C@H](O)C[C@@H](CCn3cc(-c4ccccc4)nn3)O2)cc1` showed an AC50 of more than 100 µM.

As to `COC(=O)c1ccc(CN2CCCC(CO)(Cc3ccccc3F)C2)cc1` (configuration not stated), the AC50 was > 100 µM (inactive).

As to `Cc1c(Cc2ccccc2)sc(NC(=O)Cc2ccccc2)c1C(N)=O`, the AC50 is > 100 µM (inactive).

Regarding `COc1ccc(CC(=O)Nc2nc(-c3cc(OC)ccc3OC)cs2)cc1`, the AC50 was > 100 µM (inactive). Moreover, under setting [1], the AC50 turned out to be 8.91 µM.

Under setting [1], `CCNc1nc(N)c(C(=O)C23CC4CC(CC(C4)C2)C3)s1` came in with an AC50 of more than 100 µM.

`CCC(=O)Nc1nc2ccc(NC(=O)c3cc(OC)c(OC)c(OC)c3)cc2s1`: the AC50 was > 100 µM (inactive).

As for `CC(=O)Nc1cccc(-c2ccnc3c2CC(C(=O)Nc2ccc4c(c2)OCO4)O3)c1` (configuration not stated), the AC50 is > 100 µM (inactive).

For `CSc1c(-c2ccccn2)c(N)nn1C(=O)C1CC1`, the AC50 is > 100 µM (inactive).

In the case of `O=[N+]([O-])c1ccc2nc(-c3ccccc3[N+](=O)[O-])[nH]c2c1`, the AC50 was > 100 µM (inactive). For the same molecule, under setting [1], the AC50 was more than 100 µM.

For the molecule `CCN(CC)CCN(C(=O)c1ccccc1OC)c1nc2ccc(F)cc2s1`, the AC50 was > 100 µM (inactive). The same molecule showed an AC50 under setting [1] of more than 100 µM.

On to `COc1ccc(CNC(=O)c2sc3nc4c(c(C(F)(F)F)c3c2N)CCC4)cc1OC`, for which the AC50 under setting [1] is more than 100 µM.

Take `FC(F)(F)c1ccc(Cl)c(-n2c(Cc3cccs3)n[nH]c2=S)c1`: the AC50 is > 100 µM (inactive).

Under setting [1], `CCN(CC)S(=O)(=O)c1ccc(O)c(C(=O)OCC(=O)NC23CC4CC(CC(C4)C2)C3)c1` registered an AC50 of more than 100 µM.

`O=C(CN(CCO)c1ccccc1)Nc1cccc(S(=O)(=O)N2CCCC2)c1`: the AC50 is > 100 µM (inactive).

Turning to `CN(c1ccccc1)S(=O)(=O)c1cccc(NC(=O)CCN2C(=O)C3CCCCC3C2=O)c1` (configuration not stated), the AC50 is > 100 µM (inactive). The molecule further displayed an AC50 under setting [1] of more than 100 µM.

`O=C1NC(CCc2ccccc2)C(=O)N1Cc1cccc2ccccc12` (configuration not stated): the AC50 was > 100 µM (inactive). Further, the AC50 under setting [1] is 51.5 µM.

`O=C1c2ccccc2C(=O)N1CCc1c[nH]c2ccccc12`: the AC50 is > 100 µM (inactive). Moreover, the AC50 under setting [1] was more than 100 µM.

With `O=c1[nH]c(C2CCN(S(=O)(=O)c3ccc4c(c3)OCCO4)CC2)nc2c1nnn2Cc1ccccc1F`, the AC50 was > 100 µM (inactive).

In turn, `CN1OC[C@@H]2CN(C(=O)c3ccco3)[C@H](c3ccc(-c4ccc(C#N)cc4)cc3)C[C@@H]21` showed an AC50 under setting [1] of more than 100 µM.

Consider `Cc1ccccc1-n1ncc2c1CC(C)(C)CC2NC(=O)CCN1Cc2ccccc2C1=O` (configuration not stated), for which the AC50 is > 100 µM (inactive). Besides, the concentration at half-maximal activity (AC50) under setting [1] is more than 100 µM.

For `Nc1ccccc1Nc1ccc([N+](=O)[O-])cc1[N+](=O)[O-]`, the AC50 is > 100 µM (inactive).

`Cc1ccc(CNC(=O)c2ccc(Br)o2)cc1`: the AC50 was > 100 µM (inactive).

Under setting [1], `O=C(COC(=O)C1CC2C=CC1C2)Nc1ccc([N+](=O)[O-])cc1` (configuration not stated) showed an AC50 of more than 100 µM.

Take `CCCCc1ccc(S(=O)(=O)Nc2ccc(C)c(NS(C)(=O)=O)c2)cc1`: the AC50 was > 100 µM (inactive). The molecule also had a concentration at half-maximal activity (AC50) under setting [1] of 51.4 µM.

For the molecule `CSc1ccccc1NC(=O)c1ccccc1N(Cc1ccccc1)S(C)(=O)=O`, the AC50 is > 100 µM (inactive).

Turning to `COC(=O)c1cc2c(c3c4cc(F)ccc4n(S(=O)(=O)c4cccc(C)c4)c13)C(=O)N(Cc1ccco1)C2`, the AC50 under setting [1] is more than 100 µM.

Take `COc1ccc(OC2C(=O)N(Cc3ccc4c(c3)OCO4)C2c2cccs2)cc1` (configuration not stated): the AC50 was > 100 µM (inactive).

In the case of `CCOC(=O)c1sc(NC(=O)CN2CCN(c3ccccc3)CC2)nc1C`, the AC50 is > 100 µM (inactive).

As for `CC(C)(CC(=O)O)CC(=O)NCc1c(Cl)cccc1Sc1ccc(Cl)cc1`, the AC50 under setting [1] was more than 100 µM.

With `COCc1c(C#N)c(NCCc2ccc(F)cc2)nc(C)c1[N+](=O)[O-]`, the AC50 is > 100 µM (inactive).

As for `COC(=O)c1c(NC(=O)CCC(=O)O)sc(Cc2ccccc2)c1C`, the AC50 is > 100 µM (inactive). The AC50 under setting [1] was determined as 18.8 µM.

On to `Cc1cccc(N2CCN(Cc3nc(-c4ccc(F)cc4F)oc3C)CC2)n1`, for which the AC50 under setting [1] was more than 100 µM.
